Test results from paper PMC6222352, “Ultrasound Assisted Synthesis of 4-(Benzyloxy)-N-(3-chloro-2-(substitutedphenyl)-4-oxoazetidin-1-yl) Benzamide as Challenging Anti-Tubercular Scaffold” (Molecules : A Journal of Synthetic Chemistry and Natural …, 2018).
Converted amounts (≈) assume the structure as drawn. Like-named read-outs stand apart in the source and are kept apart here.

Tests used:
[1] = test system: Mycobacterium tuberculosis H37Ra (ATCC 25177); experiment: In vitro anti-tubercular activity by XTT Reduction Menadione assay (XRMA); format: cell-based; settings: 192 h, read-out: Mycobacterium tuberculosis H37Ra (ATCC 25177) IC50
Description: All the synthesized compounds 6a–j were screened for their in vitro anti-tubercular activity against MTB H37Ra (ATCC 25177). Rifampicin was used as a positive control.
In Vitro Anti-Tubercular Activity by the XTT Reduction Menadione Assay (XRMA) Method
Mycobacterium tuberculosis H37Ra (ATCC 25177) strains were obtained from AstraZeneca, India. The stock culture was maintained at −80 °C and subcultured once in a liquid M. pheli medium which contained 0.5 g KH2PO4, 0.25 g trisodium citrate, 60 mg MgSO4, 0.5 gm asparagine, and 2 mL glycerol in distilled water (100 mL) followed by pH adjustment to 6.6. Bacilli stock cultures were grown in M. pheli medium at 37 °C with continuous agitation at 150 RPM;, it takes at least 8–10 days for OD 1 at 620 nm. Stock solutions (10 mg/mL) of all the synthesized compounds were prepared in DMSO and were evaluated for in vitro anti-tubercular activity against Mycobacterium tuberculosis H37Ra (ATCC 25177) in a liquid medium using an established XTT Reduction Menadione assay (XRMA) method. Briefly, the 96 wells plate received 248.5 μL of M. Pheli medium consisting of bacilli and 2.5 μL of test solutions in serial dilution (12.5, 6.25, 3.125, 1.5625, 0.78 μg/mL). The plates were sealed with a 96-well sealing sheet and incubated at 37 °C for 8 days. Post incubation, XRMA was carried out to estimate viable cells present in different wells of the assay plate. The absorbance was read on a micro plate reader (Spectramax plus384 plate reader, Molecular Devices Inc., San Jose, CA, USA) at 470 nm filter against a blank prepared from cell-free wells. Absorbance given by cells treated with the vehicle alone was taken as 100% cell growth. MIC and IC50 values of compounds were calculated by using Origin 6 software. Percent inhibition was calculated by using following formula:% Inhibition = [(absorbance of Control − absorbance of Test)/(absorbance of Control − absorbance of Blank)] × 100(1) where control is the medium with bacilli along with vehicle and blank is cell-free medium. The drug in clinical use, rifampicin was used as a reference.

[2] = test system: human cervical cancer cell line HeLa; experiment: In vitro cytotoxicity by MTT assay; format: cell-based; settings: 48 h, concentration range 100–0.1 μg/mL, read-out: Hela Cells IC50
Description: To lowers the failure of potential therapeutics at later stages of clinical trials toxicity analysis of synthesized compounds at the early stage of research work plays a very important role. To examine the safety of the synthesized compounds, 6a–j were evaluated for their toxicity against human cervical cancer cell line HeLa using the concentration range between 100–0.1 μg/mL.
All the synthesized compounds were tested for their cytotoxicity by a modified MTT assay as described previously. Briefly, cells were seeded at the density of 1 × 10^5 cells/mL in a 96-well plate. The plates were incubated overnight in CO2 incubator (37 °C under 5% CO2 and 95% air in a humidified atmosphere). Next day, cells were treated with synthesized compounds at 10-fold dilution (100–0.1 µg/mL) and incubated for an additional 48 h. Paclitaxel was used as positive control. Post incubation, cell medium was replaced with MTT (0.5 mg/mL)-PBS medium and incubated for 2–4 h to form the reduced MTT or Formazan crystals. This reduced MTT or Formazan crystals were solubilized by addition of 100 µL of SDS-DMF (20% SDS in 50% DMF). The optical density was read on a microplate reader (Spectramax plus 384 plate reader, Molecular Devices Inc.) at 570 nm filter against a blank prepared from cell-free wells. Absorbance given by cells treated with the vehicle alone was taken as 100% cell growth. IC50 and MIC values were calculated from graphs, using Origin Pro software. Where DMSO treated culture cells is control and culture medium without cells is blank. The percent cytotoxicity in the presence of test fractions was calculated by the following formula:Percent cytotoxicity = [(average absorbance of control − absorbance of a compound)/(absorbance of control − absorbance of blank)] × 100(2)

[3] = XRMA, 8 days incubation at 37 °C, liquid M. pheli medium

Row | Compound | IC50 [1, 3] | IC50 [2] | IC50 [1]
1 | O=C(NN1C(=O)C(Cl)C1c1ccc(O)cc1)c1ccc(OCc2ccccc2)cc1 (stereo not shown) [Derivative 6a, 4-(Benzyloxy)-N-(3-chloro-2-(4-hydroxyphenyl)-4-oxoazetidin-1-yl) benzamide] | 0.652 µg/mL (≈ 1.54 µM) | 82.6 µg/mL (≈ 195 µM) | –
2 | COc1ccc(C2C(Cl)C(=O)N2NC(=O)c2ccc(OCc3ccccc3)cc2)cc1 (stereo not shown) [Derivative 6b, 4-(Benzyloxy)-N-(3-chloro-2-(4-methoxyphenyl)-4-oxoazetidin-1-yl) benzamide] | 0.918 µg/mL (≈ 2.1 µM) | 54.9 µg/mL (≈ 126 µM) | –
3 | O=C(NN1C(=O)C(Cl)C1c1ccc(F)cc1)c1ccc(OCc2ccccc2)cc1 (stereo not shown) [Derivative 6c, 4-(Benzyloxy)-N-(3-chloro-2-(4-fluorophenyl)-4-oxoazetidin-1-yl) benzamide] | 0.85 µg/mL (≈ 2 µM) | 31.6 µg/mL (≈ 74.4 µM) | –
4 | O=C(NN1C(=O)C(Cl)C1c1ccc(Cl)cc1)c1ccc(OCc2ccccc2)cc1 (stereo not shown) [Derivative 6d, 4-(Benzyloxy)-N-(3-chloro-2-(4-chlorophenyl)-4-oxoazetidin-1-yl) benzamide] | 1.34 µg/mL (≈ 3.04 µM) | 70.4 µg/mL (≈ 159 µM) | –
5 | O=C(NN1C(=O)C(Cl)C1c1cccc([N+](=O)[O-])c1)c1ccc(OCc2ccccc2)cc1 (stereo not shown) [Derivative 6e, 4-(Benzyloxy)-N-(3-chloro-2-(3-nitrophenyl)-4-oxoazetidin-1-yl) benzamide] | 0.654 µg/mL (≈ 1.45 µM) | > 100 µg/mL | –
6 | COc1ccc(C2C(Cl)C(=O)N2NC(=O)c2ccc(OCc3ccccc3)cc2)cc1OC (stereo not shown) [Derivative 6f, 4-(Benzyloxy)-N-(3-chloro-2-(3,4-dimethoxyphenyl)-4-oxoazetidin-1-yl) benzamide] | 1.72 µg/mL (≈ 3.67 µM) | 44.1 µg/mL (≈ 94.4 µM) | –
7 | COc1cc(C2C(Cl)C(=O)N2NC(=O)c2ccc(OCc3ccccc3)cc2)ccc1O (stereo not shown) [Derivative 6g, 4-(Benzyloxy)-N-(3-chloro-2-(4-hydroxy-3-methoxyphenyl)-4-oxoazetidin-1-yl) benzamide] | 0.718 µg/mL (≈ 1.59 µM) | > 100 µg/mL | –
8 | CCOc1cc(C2C(Cl)C(=O)N2NC(=O)c2ccc(OCc3ccccc3)cc2)ccc1O (stereo not shown) [Derivative 6h, 4-(Benzyloxy)-N-(3-chloro-2-(3-ethoxy-4-hydroxyphenyl)-4-oxoazetidin-1-yl) benzamide] | 0.85 µg/mL (≈ 1.82 µM) | > 100 µg/mL | –
9 | O=C(NN1C(=O)C(Cl)C1c1ccc(OCc2ccccc2)cc1)c1ccc(OCc2ccccc2)cc1 (stereo not shown) [Derivative 6i, 4-(Benzyloxy)-N-(2-(4-(benzyloxy)phenyl)-3-chloro-4-oxoazetidin-1-yl) benzamide] | 1.31 µg/mL (≈ 2.55 µM) | 89.2 µg/mL (≈ 174 µM) | –
10 | O=C(NN1C(=O)C(Cl)C1c1cccs1)c1ccc(OCc2ccccc2)cc1 (stereo not shown) [Derivative 6j, 4-(Benzyloxy)-N-(3-chloro-2-oxo-4-(thiophen-2-yl)azetidin-1-yl) benzamide] | 0.786 µg/mL (≈ 1.9 µM) | 33.2 µg/mL (≈ 80.4 µM) | –
11 | CC(=O)O[C@H]1C(=O)[C@@]2(C)[C@H]([C@H](OC(=O)c3ccccc3)[C@]3(O)C[C@H](OC(=O)[C@H](O)[C@@H](NC(=O)c4ccccc4)c4ccccc4)C(C)=C1C3(C)C)[C@]1(OC(C)=O)CO[C@@H]1C[C@@H]2O [Paclitaxel, reference compound] | – | 0.0056 µg/mL (≈ 0.00656 µM) | –
12 | CO[C@H]1/C=C/O[C@@]2(C)Oc3c(C)c(O)c4c(O)c(c(/C=N/N5CCN(C)CC5)c(O)c4c3C2=O)NC(=O)/C(C)=C\C=C\[C@H](C)[C@H](O)[C@@H](C)[C@@H](O)[C@@H](C)[C@H](OC(C)=O)[C@@H]1C [Rifampicin, reference compound] | – | – | 0.004 µg/mL (≈ 0.00486 µM)
